System: AV5 cells
Assay: Cell viability (Alamar Blue) of AV5 cells after cryopreservation and warming
Type: cell-based, porcine
Settings: 0 to 1 M CHD added to 1 M DMSO or to DMSO/formamide/propanediol (final 1 M), normalized to conventional cryoprotectant alone, FIGS. 2 and 3
Description: A primary cell strain called AV5 was used for these experiments. AV5 cells are derived from porcine heart valve leaflets. Hearts were obtained from pigs and the heart valve leaflets were then removed and washed several times with sterile phosphate-buffered saline (PBS). Small pieces (˜1 mm^2) were cut and placed into a 24-well microtiter plate coated with 0.2% gelatin. Dulbecco's Modified Eagle's Medium (DMEM) with 10% fetal calf serum (FCS) was added to just cover the bottom of the well and the plate was left at 37° C. with 5% CO2 in air until visible outgrowth occurred. […]
Cell viability was then determined using the non-invasive metabolic indicator Alamar Blue (Trek Diagnostics). […] Fluorescence from Alamar Blue was read in a fluorescent microplate reader (Fmax fluorescent microplate reader by […]) using an excitation wavelength of 544 nm and an emission wavelength of 590 nm.
The first set of experiments involved using two CPA compositions, either 1 M dimethyl sulfoxide (DMSO) (left bar of graph at each concentration of 1,3CHD in FIG. 2 and 1,4CHD in FIG. 3) or a combination of DMSO, formamide and propanediol at a final concentration of 1 M (right bar of graph at each concentration of 1,3CHD in FIG. 2 and 1,4CHD in FIG. 3). […] Cell viability was assessed using the assay described above. […]

SMILES	relative cell viability after freezing
OC1CCCC(O)C1 (centres unmarked) [1,3CHD, 1,3-cyclohexanediol]	significantly increased
OC1CCC(O)CC1 (centres unmarked) [1,4CHD, 1,4-cyclohexanediol]	significantly increased

— US20020068360A1, “Cyclohexanediol cryoprotectant compounds” (priority 2000, published 2002)
